Bridges are numbered along the chain shown (N, C = ends). Where no end group is shown, it is not given here.
Experiments:
[1] = test system: murine house dust mite/Freunds complete adjuvant driven model of allergic asthma; test: Lung resistance and compliance after methacholine, HDM/Freunds adjuvant asthma model (Example 2); type: in vivo, BALB/c mice; conditions: vs HDM challenged vehicle
Procedure: Female 7-10 weeks old BALB/c mice were randomly allocated into 7 study groups one day prior to study start and subcutaneously (SC) sensitized to house dust mite (100 μg HDM in 200 μL saline plus Freunds complete adjuvant in 0.9% saline). Mice were then intranasally (IN) challenged with HDM on day 14 (HDM 25 μg in 50 μL of saline). […] The initial dose was administered 60 minutes prior to challenge, and the subsequent doses approximately 6 hours apart. Lung function: Starting 48 hours after HDM challenge, measurements of lung resistance and lung compliance were carried out after methacholine challenge (3.125 MCH1; 6.25 MCH2; 12.5 MCH3 and 25 mg/mL MCH4) by anaesthetized, cannulated mice using DSI's Buxco Finepoint RC system. Data are represented as airway resistance at […] and as dose responsive curves.

[2] = test system: murine house dust mite/Freunds complete adjuvant driven model of allergic asthma; test: Total and differential cell counts in BALF, HDM asthma model (Example 2); type: in vivo, BALB/c mice
Procedure: Female 7-10 weeks old BALB/c mice were randomly allocated into 7 study groups one day prior to study start and subcutaneously (SC) sensitized to house dust mite (100 μg HDM in 200 μL saline plus Freunds complete adjuvant in 0.9% saline). Mice were then intranasally (IN) challenged with HDM on day 14 (HDM 25 μg in 50 μL of saline). […] The initial dose was administered 60 minutes prior to challenge, and the subsequent doses approximately 6 hours apart. Airway inflammation: At 48 hours post challenge, bronchoalveolar lavage was performed washing the lungs with 3 volumes of cold PBS (0.4; 0.3 and 0.3 mL, total 1 mL). Total and differential leucocyte cell counts were determined on an automated haematological analyser Sysmex XT-2000iV.

[3] = test system: microbiota of the intestine; test: 16S microbiota analysis, prophylactic defensin treatment in high fat diet model (Example 10); type: in vivo, mice
Description: Mice were housed in trios, 4 cages per group. Feed intake was registered daily just before lights were turned off at […]. Individual mice were subjected to experimental procedures in altered order both group and cage wise. Mice were kept at room temperature under a 12-hour light/dark cycle at SPF standard conditions. The treatment regime is described in FIG. 38. Mice were fed either a high fat diet (HFD) or a low fat (LF) control diet. The HFD contained 4 subgroups; 1 hBD2, 1 HD5, 1 hBD2/HD5 and 1 standard HFD without supplementation of defensins. Defensin concentration was 1.2 mg hBD2 per kg mouse per day. HD5 was given in equimolar concentration to hBD2. […] Microbial analyses were carried out to study the microbiota of the intestine. Longitudinal 16S characterization was conducted on 4 paired samples from 60 mice, 240 samples in total. Each mouse was sampled prior to diet change, 1 week post diet change, 4 weeks post diet change and at termination, thus ensuring a thorough characterization of the faecal microbiota as a result of defensin treatment.

[4] = test system: IL-1β, TNF-α, IL-6, IL-10 and IFNγ in lung tissue homogenates; test: Cytokine ELISA in lung tissue homogenates, HDM asthma model (Example 2); type: in vivo, BALB/c mice; conditions: vs HDM/vehicle
Procedure: Female 7-10 weeks old BALB/c mice were randomly allocated into 7 study groups one day prior to study start and subcutaneously (SC) sensitized to house dust mite (100 μg HDM in 200 μL saline plus Freunds complete adjuvant in 0.9% saline). Mice were then intranasally (IN) challenged with HDM on day 14 (HDM 25 μg in 50 μL of saline). […] The initial dose was administered 60 minutes prior to challenge, and the subsequent doses approximately 6 hours apart.
Lung sampling for cytokine analysis: After completion of every BAL, lungs were removed from the thorax, snap frozen in liquid nitrogen and stored frozen at −80 degrees Celsius until analysis of cytokine concentration of IL-1β, TNF-α, IL-6, IL-10 and IFNγ by ELISA.

[5] = test system: IL-4, IL-5, IL-8 (KC), IL-9 and IL-13 in lung tissue homogenates; test: Cytokine ELISA in lung tissue homogenates, HDM asthma model (Example 3); type: in vivo, BALB/c mice
Procedure: Treatment regime: Female 7-10 weeks old BALB/c mice randomly allocated into 4 study groups one day prior to study start were subcutaneously (SC) sensitized to house dust mite (100 μg HDM in 200 μL saline plus Freund's complete adjuvant in 0.9% saline). Mice were intranasally (IN) challenged with HDM on day 14 (HDM 25 μg in 50 μL of saline). hBD-2 was administered IN or orally (0.4 mg/kg TID IN; 0.4 mg/kg TID orally, 50 μL phosphate buffered saline) on day 14. The initial dose was administered 60 minutes prior to challenge, and the subsequent doses approximately 6 hours apart.
Lung tissue sampling: Lungs were removed from the thorax, snap frozen in liquid nitrogen and stored frozen at −80 degrees Celsius until analysis of cytokine concentration of IL-4, IL-5, IL-8 (KC), IL-9 and IL-13 by ELISA.
The lungs were exposed and excised by gently opening the thorax and by cutting down either side of the sternum and ribs and trimming back. Lungs from first 6 animals per group were removed from thorax, snap frozen in liquid nitrogen and stored frozen at −80° C. until analysis of cytokine concentration by ELISA.

[6] = Pharmacokinetics after subcutaneous or intravenous administration; type: in vivo, NMRI female mice; conditions: female, NMRI, mouse, hBD-2 1 mg/kg subcutaneous or intravenous
Procedure: To investigate and compare the pharmacokinetic profile of hBD-2 fused to the C-terminal (molecular weight 71.336 Da) or N-terminal (molecular weight 71.666 Da) of human serum albumin following subcutaneous or intravenous administration of a molar equivalent to 1 mg/kg hBD-2 (molecular weight […]) to NMRI female mice.
The animals were dosed 10 ml/kg of stock concentration of 1.65 mg/ml according to the individual body weight (300 μL for a 30 gram mouse). First blood sample was taken using a submandibular sampling method and the second following Isoflurane anaesthesia and euthanasia.

GIGDPVTCLKSGAICHPVFCPRRYKQIGTCGLPGTKCCKKP (disulfide 8-37, 15-30, 20-38 (inferred)) [hBD-2, human beta defensin 2]
decrease of pulmonary compliance ([1]; intranasal TID on day 14): effectively inhibited
increase of airway resistance ([1]; intranasal TID on day 14): effectively inhibited
decrease of pulmonary compliance ([1]; oral 0.4 mg/kg TID on day 14): effectively inhibited
increase of airway resistance / AHR ([1]; oral, hBD-2 0.4 mg/kg TID, dexamethasone 1 mg/kg BID, day 14): effectively inhibited
neutrophil counts in BALF ([2]; intranasal 0.4 mg/kg/day TID): significantly inhibited
neutrophil counts in BALF ([2]; intranasal 1.7 mg/kg/day TID): significantly inhibited
effect on microbial presence / microbial abundance ([3]; 1.2 mg hBD2 per kg per day in feed, HD5 equimolar, combination 50% + 50%): affected primarily the microbial presence
abundance of Barnesiella in the colon ([3]; prophylactic treatment, p<0.03): statistically significant increase
abundance of Lactobacillaceae in colon ([3]; prophylactic treatment, p=0.1): trend towards lower abundance
IFN-γ level in lung tissue homogenates ([4]; intranasal): significant effects
TNF-α level in lung tissue homogenates ([4]; intranasal): not significantly different from the control
TNF-α level in lung tissue homogenates ([4]; oral (hBD2 0.4 mg/kg TID; dexamethasone 1 mg/kg BID)): significantly reduced
IFN-γ level in lung tissue homogenates ([4]; oral (hBD-2 0.4 mg/kg TID; dexamethasone 1 mg/kg BID)): significant effects
IL-4 level in lung tissue homogenates ([5]; intranasal 0.4 mg/kg TID): significant effects
IL-5 level in lung tissue homogenates ([5]; intranasal 0.4 mg/kg TID): significant effects
IL-9 level in lung tissue homogenates ([5]; intranasal 0.4 mg/kg TID): significant effects
IL-4 level in lung tissue homogenates ([5]; oral 0.4 mg/kg TID): significant effects
IL-5 level in lung tissue homogenates ([5]; oral 0.4 mg/kg TID): significant effects
IL-9 level in lung tissue homogenates ([5]; oral 0.4 mg/kg TID): significant effects
half-life ([6]; blood): 1 h
CL renal ([6]; in vivo, read-out: renal clearance): 10 mL/min
